One experiment concerns the target T1, HER2 enzyme (Homo sapiens, UniProt P04626).
T1 construct: purchased Reaction Biology Corp. (San Diego, USA); outsourced assay service
Briefly: Biochemical kinase assay for HER2 (Reaction Biology Corp.). The note with it: ATP 10 μM, 3-fold dilution from 10 μM. The protocol:
A biochemical kinase assay for HER2 was conducted through Reaction Biology Corp. (San Diego, USA).

A further experiment deals with BT-474 cancer cells. As to the kind of experiment: Inhibition of BT-474 cell proliferation (CellTiter-Glo). The class given is cell-based. The note with it: Homo sapiens, BT-474 cells, 120 hours. A digest of the protocol: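 BT-474 cells in RPMI-1640 with 20% FBS, seeded 48 h before dosing with 11 three-fold dilutions (final 0.2 nM to 10 μM). Viability read by CellTiter-Glo luminescence 120 h after treatment, triplicate tests. GI50 derived from growth rate (%) versus control.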
On the technique in general: Cellular ATP, detected with luciferase, serves as a proxy for viable cell number.

The next experiment concerns N-87 cancer cells. Briefly: Inhibition of N-87 cell proliferation (CellTiter-Glo). The class given is cell-based. The note with it: N-87 cells, 72 hours. The protocol: N-87 cancer cells were cultured by using RPMI-1640 medium with 10% FBS. The N-87 cancer cells were seeded to a white clear bottom 96 well plate (Corning) at 5,000 cells per well 24 hours before the […] cancer cells were treated with Example Compounds. Example Compounds were diluted in dimethylsulfoxide (5-fold diluted, total 11 concentrations) and 0.5 μL each was injected so that the final concentration was […]. For the measurement of living cells, the cells were stored at room temperature for 10 minutes using the CellTiter-Glo cell viability reagent (Promega) after 72 hours after the treatment of Example Compounds, and then the luminescence intensity was measured using the reader (SynergyNeo, Biotek).
The result value was calculated as a cell growth rate (%) compared to a control group. Graphs were plotted and GI50 values were calculated using the GraphPad Prism version 8.0 program, and the results are shown in Table 18 below.

The test system of the next experiment is Ba/F3 HER2 WT cells. As to the kind of experiment: Inhibition of transduced Ba/F3 cell proliferation, HER2 WT. Format: cell-based. The note with it: Mus musculus, BaF3, 72 hours, CellTiter-Glo. The protocol: (§1) Transduced Ba/F3 cells were cultured by adding 1 μg/mL of puromycin (Invitrogen) to a medium (RPMI-1640) containing 10% fetal bovine serum (FBS). 3,000 Ba/F3 HER2 WT cells were seeded to a white clear bottom 96 well plate (Corning) 24 hours before the Ba/F3 HER2 WT cells were treated with Example compounds. For Ba/F3 HER2 L755S, Ba/F3 HER2 L755P, Ba/F3 HER2 T862A, and Ba/F3 HER2 L869R/T798I cells, 5,000 cells each were seeded to a white clear bottom 96 well plate (Corning) 24 hours before the cells were treated with the compounds. Example Compounds were diluted in dimethylsulfoxide (3-fold diluted, total 11 concentrations) and 0.5 μL each was injected so that the final concentration was 0.2 nM to 10 μM. For the measurement of living cells, the cells were stored at room temperature for 10 minutes using the CellTiter-Glo cell viability reagent (Promega) after 72 hours after the treatment of Example Compounds, and then the luminescence intensity was measured using the reader (SynergyNeo, Biotek). Each test was repeated twice.
(§2) The result value was calculated as a cell growth rate (%) compared to a control group, and the GI50 values were calculated using the software (GraphPad Prism version 8.0), and the results are shown in Table 19 below.

The next experiment concerns Ba/F3 HER2 L755S cells. As to the kind of experiment: Inhibition of transduced Ba/F3 cell proliferation, HER2 L755S. Format: cell-based. Conditions: Mus musculus, BaF3, 72 hours, CellTiter-Glo. The protocol:
as §1, §2

The next experiment has as its system Ba/F3 HER2 L755P cells. As to the kind of experiment: Inhibition of transduced Ba/F3 cell proliferation, HER2 L755P. The class given is cell-based. Conditions: Mus musculus, BaF3, 72 hours, CellTiter-Glo. The protocol: as §1, §2
The next experiment relates to Ba/F3 HER2 T862A cells. As to the kind of experiment: Inhibition of transduced Ba/F3 cell proliferation, HER2 T862A. Format: cell-based. Conditions: Mus musculus, BaF3, 72 hours, CellTiter-Glo. The protocol: as §1, §2
The test system of experiment [1] is Ba/F3 HER2 L869R/T798I cells. As to the kind of experiment: Inhibition of transduced Ba/F3 cell proliferation, HER2 L869R/T798I. Format: cell-based. The note with it: Mus musculus, BaF3, 72 hours, CellTiter-Glo. The protocol:
as §1, §2

The next experiment has as its system HER2 mutant cancers. Conditions: cited from earlier work; for response of patients with HER2 mutation: phase 1 and 2 clinical trials; for objective response rate (ORR): SUMMIT clinical trial.

Where two headings read alike, the source gives them in different places.

T1 sequence (P04626 23-1255): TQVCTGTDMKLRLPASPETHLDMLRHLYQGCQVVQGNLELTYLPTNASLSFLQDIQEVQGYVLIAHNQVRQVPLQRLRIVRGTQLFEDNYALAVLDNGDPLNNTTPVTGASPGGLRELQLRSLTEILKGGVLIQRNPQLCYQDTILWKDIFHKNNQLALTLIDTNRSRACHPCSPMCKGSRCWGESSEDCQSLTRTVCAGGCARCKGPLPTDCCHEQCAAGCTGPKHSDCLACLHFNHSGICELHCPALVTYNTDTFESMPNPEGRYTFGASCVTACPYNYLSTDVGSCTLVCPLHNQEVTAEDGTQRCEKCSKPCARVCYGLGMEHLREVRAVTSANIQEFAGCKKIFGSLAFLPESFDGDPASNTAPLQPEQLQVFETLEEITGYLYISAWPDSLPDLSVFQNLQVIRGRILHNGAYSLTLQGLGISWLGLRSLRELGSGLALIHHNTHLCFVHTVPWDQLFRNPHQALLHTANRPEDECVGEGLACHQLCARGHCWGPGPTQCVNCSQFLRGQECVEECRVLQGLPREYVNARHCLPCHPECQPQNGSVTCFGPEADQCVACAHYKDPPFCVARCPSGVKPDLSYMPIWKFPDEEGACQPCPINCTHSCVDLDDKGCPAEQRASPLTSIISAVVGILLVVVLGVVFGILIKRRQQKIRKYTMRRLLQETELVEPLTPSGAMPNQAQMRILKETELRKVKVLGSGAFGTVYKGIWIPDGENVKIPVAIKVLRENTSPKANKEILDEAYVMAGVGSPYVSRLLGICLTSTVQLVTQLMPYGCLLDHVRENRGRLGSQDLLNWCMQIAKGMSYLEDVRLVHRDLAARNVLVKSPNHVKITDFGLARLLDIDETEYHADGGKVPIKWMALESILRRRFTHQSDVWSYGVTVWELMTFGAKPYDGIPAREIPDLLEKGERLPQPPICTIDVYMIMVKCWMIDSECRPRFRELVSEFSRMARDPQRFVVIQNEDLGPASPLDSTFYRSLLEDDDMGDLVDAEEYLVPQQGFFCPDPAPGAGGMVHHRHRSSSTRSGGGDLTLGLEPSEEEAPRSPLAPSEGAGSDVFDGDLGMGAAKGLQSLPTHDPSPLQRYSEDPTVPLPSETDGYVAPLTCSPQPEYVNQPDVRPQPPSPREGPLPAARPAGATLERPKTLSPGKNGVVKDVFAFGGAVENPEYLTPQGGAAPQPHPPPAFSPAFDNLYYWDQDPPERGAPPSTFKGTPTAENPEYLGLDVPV

Compound `C=CC(=O)N1CCC(Nc2cc3c(Nc4cc(Cl)c(Oc5cccc(F)c5)cc4OC)ncnc3cc2OC)CC1` [Example 2, 1-(4-((4-((5-chloro-4-(3-fluorophenoxy)-2-methoxyphenyl)amino)-7-methoxyquinazolin-6-yl)amino)piperidin-1-yl)prop-2-en-1-one] returned an IC50 on HER2 enzyme not above 50 nM. Moreover, the concentration for 50% growth inhibition (GI50) in the experiment on BT-474 cancer cells and in the experiment with N-87 cancer cells was not above 50 nM each time.
For the compound `C=CC(=O)N1CCC(Oc2cc3c(Nc4cc(Cl)c(Oc5cccc(F)c5)cc4OC)ncnc3cc2OC)CC1` [Example 8, 1-(4-((4-((5-chloro-4-(3-fluorophenoxy)-2-methoxyphenyl)amino)-7-methoxyquinazolin-6-yl)oxy)piperidin-1-yl)prop-2-en-1-one], the IC50 against HER2 enzyme is not above 50 nM. Moreover, the GI50 in the experiment on BT-474 cancer cells and with N-87 cancer cells was not above 50 nM in each case.
For the compound `COc1cc2ncnc(Nc3cc(Cl)c(Oc4cccc(F)c4)cc3OC)c2cc1NC(=O)/C=C/CN(C)C` [Example 25, (E)-N-(4-((5-chloro-4-(3-fluorophenoxy)-2-methoxyphenyl)amino)-7-methoxyquinazolin-6-yl)-4-(dimethylamino)but-2-enamide], the IC50 against HER2 enzyme is not above 50 nM. For the same compound, the GI50 in the experiment with BT-474 cancer cells and in the experiment with N-87 cancer cells was not above 50 nM throughout.
Regarding `COc1cc2ncnc(Nc3cc(C)c(Oc4ccn5ncnc5c4)cc3OC)c2cc1NC(=O)/C=C/[C@H]1CCCN1C` [Example 29, (R,E)-N-(4-((4-([1,2,4]triazolo[1,5-a]pyridin-7-yloxy)-2-methoxy-5-methylphenyl)amino)-7-methoxyquinazolin-6-yl)-3-(1-methylpyrrolidin-2-yl)acrylamide], the IC50 against HER2 enzyme is not above 50 nM. Besides, the 50% growth inhibitory concentration (GI50) with BT-474 cancer cells and in the experiment with N-87 cancer cells was not above 50 nM in each case.
On HER2 enzyme, `COc1cc2ncnc(Nc3cc(Cl)c(Oc4cccc(F)c4)cc3OC)c2cc1NC(=O)/C=C/[C@H]1CCCN1C` [Example 30, (R,E)-N-(4-((5-chloro-4-(3-fluorophenoxy)-2-methoxyphenyl)amino)-7-methoxyquinazolin-6-yl)-3-(1-methylpyrrolidin-2-yl)acrylamide] displayed an IC50 not above 50 nM. In addition, the GI50 in the experiment on BT-474 cancer cells and with N-87 cancer cells was not above 50 nM each time.
Turning to `COc1cc2ncnc(Nc3cc(Cl)c(Oc4ccccn4)cc3OC)c2cc1NC(=O)/C=C/[C@H]1CCCN1C` [Example 33, (R,E)-N-(4-((5-chloro-2-methoxy-4-(pyridin-2-yloxy)phenyl)amino)-7-methoxyquinazolin-6-yl)-3-(1-methylpyrrolidin-2-yl)acrylamide], at HER2 enzyme, the IC50 was not above 50 nM. The GI50 in the experiment with BT-474 cancer cells and in the experiment with N-87 cancer cells was not above 50 nM each time.
Regarding `COc1cc2ncnc(Nc3cc(Cl)c(Oc4cccc(F)c4)cc3OC)c2cc1NC(=O)/C(F)=C\[C@H]1CCCN1C` [Example 42, (R,E)-N-(4-((5-chloro-4-(3-fluorophenoxy)-2-methoxyphenyl)amino)-7-methoxyquinazolin-6-yl)-2-fluoro-3-(1-methylpyrrolidin-2-yl)acrylamide], the IC50 at HER2 enzyme is not above 50 nM. Besides, the 50% growth inhibitory concentration (GI50) with BT-474 cancer cells, with N-87 cancer cells, in the experiment with Ba/F3 HER2 WT cells, with Ba/F3 HER2 L755S cells, in the experiment with Ba/F3 HER2 L755P cells and in the experiment with Ba/F3 HER2 T862A cells was not above 50 nM in each case. For the same compound, the GI50 in [1] was not above 50 nM.
The compound `COc1cc2ncnc(Nc3cc(F)c(Oc4ccn5ncnc5c4)cc3OC)c2cc1NC(=O)/C(F)=C/[C@H]1CCCN1C` [Example 50, (R,Z)—N-(4-((4-([1,2,4]triazolo[1,5-a]pyridin-7-yloxy)-5-fluoro-2-methoxyphenyl)amino)-7-methoxyquinazolin-6-yl)-2-fluoro-3-(1-methylpyrrolidin-2-yl)acrylamide] gave a 50% inhibitory concentration (IC50) against HER2 enzyme not above 50 nM. Besides, the GI50 in the experiment with BT-474 cancer cells, with N-87 cancer cells, in the experiment on Ba/F3 HER2 WT cells, with Ba/F3 HER2 L755S cells, with Ba/F3 HER2 L755P cells and in the experiment on Ba/F3 HER2 T862A cells was not above 50 nM each time. Further, the GI50 in experiment [1] is not above 50 nM.
In the case of `COc1cc2ncnc(Nc3cc(C(F)(F)F)c(Oc4ccn5ncnc5c4)cc3OC)c2cc1NC(=O)/C(F)=C/[C@H]1CCCN1C` [Example 54, (R,Z)—N-(4-((4-([1,2,4]triazolo[1,5-a]pyridin-7-yloxy)-2-methoxy-5-(trifluoromethyl)phenyl)amino)-7-methoxyquinazolin-6-yl)-2-fluoro-3-(1-methylpyrrolidin-2-yl)acrylamide], the half-maximal inhibitory concentration (IC50) at HER2 enzyme is not above 50 nM. Further, the GI50 in the experiment with BT-474 cancer cells is not above 50 nM.
With `COc1cc(Oc2ccn3ncnc3c2)c(C)cc1Nc1ncnc2ccc(NC(=O)/C(F)=C/[C@H]3CCCN3C)cc12` [Example 92, (R,Z)—N-(4-((4-([1,2,4]triazolo[1,5-a]pyridin-7-yloxy)-2-methoxy-5-methylphenyl)amino)quinazolin-6-yl)-2-fluoro-3-(1-methylpyrrolidin-2-yl)acrylamide], the concentration for half-maximal inhibition (IC50) at HER2 enzyme is not above 50 nM. In the experiment on BT-474 cancer cells, the GI50 was not above 50 nM.
`COc1cc2ncnc(Nc3cc(C)c(Oc4ccn5ncnc5c4)cc3OC)c2cc1NC(=O)/C(F)=C/[C@H]1CCCN1C` [Example 111, (R,Z)—N-(4-((4-([1,2,4]triazolo[1,5-a]pyridin-7-yloxy)-2-methoxy-5-methylphenyl)amino)-7-methoxyquinazolin-6-yl)-2-fluoro-3-(1-methylpyrrolidin-2-yl)acrylamide] showed an IC50 on HER2 enzyme not above 50 nM. Moreover, the GI50 in the experiment with BT-474 cancer cells and in the experiment with N-87 cancer cells was not above 50 nM in each case.
The compound `COc1cc2ncnc(Nc3cc(Cl)c(Oc4ccn5ncnc5c4)cc3OC)c2cc1NC(=O)/C(F)=C/[C@H]1CCCN1C` [Example 128, (R,Z)—N-(4-((4-([1,2,4]triazolo[1,5-a]pyridin-7-yloxy)-5-chloro-2-methoxyphenyl)amino)-7-methoxyquinazolin-6-yl)-2-fluoro-3-(1-methylpyrrolidin-2-yl)acrylamide] registered an IC50 at HER2 enzyme not above 50 nM. The GI50 with BT-474 cancer cells, with N-87 cancer cells, in the experiment with Ba/F3 HER2 WT cells, in the experiment with Ba/F3 HER2 L755S cells, with Ba/F3 HER2 L755P cells and with Ba/F3 HER2 T862A cells was not above 50 nM throughout. For the same compound, in [1], the GI50 was not above 50 nM.
On to `COc1cc2ncnc(Nc3cc(C)c(Oc4ccn5ncnc5c4)cc3OC)c2cc1NC(=O)/C(F)=C\[C@H]1CCCN1` [Example 134, (R,E)-N-(4-((4-([1,2,4]triazolo[1,5-a]pyridin-7-yloxy)-2-methoxy-5-methylphenyl)amino)-7-methoxyquinazolin-6-yl)-2-fluoro-3-(pyrrolidin-2-yl)acrylamide], for which the GI50 in the experiment on BT-474 cancer cells and in the experiment on N-87 cancer cells was not above 50 nM each time.
Take `COc1cc2ncnc(Nc3cc(C)c(Oc4ccn5ncnc5c4)cc3OC)c2cc1NC(=O)/C(Cl)=C\[C@H]1CCCN1C` [Example 136, (R,E)-N-(4-((4-([1,2,4]triazolo[1,5-a]pyridin-7-yloxy)-2-methoxy-5-methylphenyl)amino)-7-methoxyquinazolin-6-yl)-2-chloro-3-(1-methylpyrrolidin-2-yl)acrylamide]: the GI50 in the experiment with BT-474 cancer cells and in the experiment with N-87 cancer cells was not above 50 nM throughout.
Take `COc1cc2ncnc(Nc3ccc(F)c(Cl)c3)c2cc1NC(=O)/C=C/CN1CCCCC1` [dacomitinib]: in the experiment with HER2 mutant cancers, the “response of patients with HER2 mutation” value is “partial responses”.
On to `CCOc1cc2ncc(C#N)c(Nc3ccc(OCc4ccccn4)c(Cl)c3)c2cc1NC(=O)/C=C/CN(C)C` [neratinib], for which the “objective response rate (ORR)” value with HER2 mutant cancers (HER2 mutant breast cancer patients) is reported as 24%; in the experiment with HER2 mutant cancers (HER2 mutant lung cancer patients), 3.8%; with HER2 mutant cancers (other cancers having HER2 mutations), 0%. The “response of patients with HER2 mutation” value with HER2 mutant cancers was “partial responses”.

In general, IC50 refers to the concentration that inhibits the measured activity by half. Higher therefore signals a need for much substance. The term GI50 denotes the concentration giving 50% growth inhibition.

Source of the values: patent US20240383923A1, “HETEROARYL DERIVATIVE AND USE THEREOF” (VORONOI INC., priority 2022, published 2024).
